Data: US12472178B2, “Amorphous solid dispersions” (INTRA-CELLULAR THERAPIES, INC., priority 2016, dated 2025)

Assays:
[1] = amorphous form compared with the crystalline form; cited from earlier work
[2] = biological target: T1, 5-HT2C (Homo sapiens, UniProt P28335); conditions: cited from earlier work
T1 sequence (P28335 33-458): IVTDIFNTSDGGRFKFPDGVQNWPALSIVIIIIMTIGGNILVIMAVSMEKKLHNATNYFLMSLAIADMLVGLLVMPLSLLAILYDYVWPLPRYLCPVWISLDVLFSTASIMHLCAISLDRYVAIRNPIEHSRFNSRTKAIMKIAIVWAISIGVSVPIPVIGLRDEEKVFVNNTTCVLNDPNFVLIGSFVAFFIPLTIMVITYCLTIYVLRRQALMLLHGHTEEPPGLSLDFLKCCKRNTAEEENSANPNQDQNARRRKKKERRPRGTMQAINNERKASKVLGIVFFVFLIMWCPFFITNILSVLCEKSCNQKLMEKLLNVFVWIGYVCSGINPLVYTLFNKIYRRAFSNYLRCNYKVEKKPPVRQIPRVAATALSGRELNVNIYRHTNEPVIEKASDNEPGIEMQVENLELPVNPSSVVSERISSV

[3] = tested on: muscarinic receptors; conditions: cited from earlier work
[4] = biological target: H1 histaminergic (Homo sapiens, UniProt P35367); conditions: cited from earlier work
[5] = Stability of solutions in 2,2,2-trifluoroethanol; type: physicochemical; conditions: solutions in TFE
[6] = Preliminary screen of lyophilized dispersions by XRPD and appearance; type: physicochemical; conditions: ITI-007 free base dispersions, as generated
Experimental: X-ray powder diffraction (XRPD): The X-ray powder diffraction studies are performed using a PANalytical X′Pert PRO MPD diffractometer using an incident beam of Cu radiation produced using an Optix long, fine-focus source. An elliptically graded multilayer mirror is used to focus Cu Kα X-ray radiation through the specimen and onto the detector. Prior to analysis, a silicon specimen is analyzed to verify the observed position of the Si (111) peak (consistent with the NIST-certified position, NIST SM 640e). A specimen of the sample is sandwiched between 3-micron thick films and analyzed in transmission geometry. A beam-stop, short antiscatter extension, and antiscatter knife edge is used to minimize the background generated by the air. Soller slits for the incident and diffracted beams are used to minimize broadening from axial divergence. Diffraction patterns are collected using a scanning position-sensitive detector (X′Celerator) located 240 mm from the specimen. Data Collector software v. 2.2b is used for analysis.
Solutions are initially frozen in a dry ice/acetone bath, and then placed in a freeze dryer with the shelf pre-cooled to −75° C. […]
Solid dispersions obtained from Example 1 are first evaluated by XRPD to determine if they are amorphous. […]
The same excipients are evaluated as described in Example 1.

[7] = free base form; cited from earlier work
[8] = Glass transition temperature by mDSC; type: physicochemical; conditions: ITI-007 free base dispersions; Yes/No

Chain of H1 histaminergic (P35367 whole entry): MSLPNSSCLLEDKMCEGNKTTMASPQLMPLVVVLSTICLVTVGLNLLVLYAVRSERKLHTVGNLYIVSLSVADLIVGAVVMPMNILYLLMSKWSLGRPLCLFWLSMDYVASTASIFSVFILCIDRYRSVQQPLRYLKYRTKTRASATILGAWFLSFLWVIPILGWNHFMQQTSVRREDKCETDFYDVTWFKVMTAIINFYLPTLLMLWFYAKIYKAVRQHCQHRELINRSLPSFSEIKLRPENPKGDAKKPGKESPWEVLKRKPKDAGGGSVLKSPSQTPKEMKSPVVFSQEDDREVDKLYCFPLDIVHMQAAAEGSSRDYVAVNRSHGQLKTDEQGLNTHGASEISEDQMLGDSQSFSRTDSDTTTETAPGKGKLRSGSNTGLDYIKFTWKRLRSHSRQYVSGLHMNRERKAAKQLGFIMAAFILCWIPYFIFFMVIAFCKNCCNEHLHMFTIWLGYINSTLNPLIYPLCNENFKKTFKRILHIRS

X-ray Amorphous Solids? [6]	Tg > 75° C. [8]	SMILES	bioavailability [1]	binding [2]	binding [3]	binding [4]	stability of solution [5]	solubility in water [7]
		CO/N=C(\C(=O)N[C@@H]1C(=O)N2C(C(=O)OC(C)OC(C)=O)=C(COC(N)=O)CS[C@H]12)c1ccco1 (some centres unmarked) [Cefuroxime axetil]	higher bioavailability					
No	No	CN1CCN2c3c(cccc31)[C@@H]1CN(CCCC(=O)c3ccc(F)cc3)CC[C@@H]12 [ITI-007, 1-(4-fluoro-phenyl)-4-((6bR,10aS)-3-methyl-2,3,6b,9,10,10a-hexahydro-1H,7H-pyrido[3′,4′:4,5]pyrrolo[1,2,3-de]quinoxalin-8-yl)-butan-1-one]		negligible binding	negligible binding	negligible binding	rapidly discolor due to decomposition of the active	poor solubility
